# Assay results reported in PubChem BioAssay AID1963439 (Molecular Pharmacology Branch, DTP, NCI, 2024).
# System: NCI-H196 complex spheroids with HUVEC/MSC, growth % T/C
# Experiment: Anticancer human tumor NCI-H196 cell line growth inhibition [Asc];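 further: spheroids exposed to compound for 7 days before measurement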;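 on viability, T/C: 100% = DMSO vehicle control wells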
# Details: for IC50: curve of first compound; for viability, T/C: stronger effect = lower value
# In short: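 Complex solid-tumor spheroids incorporating human endothelial and mesenchymal stem cells received single agents or combinations over half-log dilution ranges anchored to clinical Cmax.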
# [1] = second compound 0.1 µM, first compound 0.0316 µM
# [2] = second compound 0.1 µM, first compound 0.1 µM
# [3] = second compound 0.1 µM, first compound 0.316 µM
# [4] = second compound 0.1 µM, first compound 1 µM
# [5] = second compound 0.1 µM, first compound 3.16 µM
# [6] = second compound 0.1 µM, first compound 10 µM
# [7] = second compound 0.316 µM, first compound 0.0316 µM
# [8] = second compound 0.316 µM, first compound 0.1 µM
# [9] = second compound 0.316 µM, first compound 0.316 µM
# [10] = second compound 0.316 µM, first compound 1 µM
# [11] = second compound 0.316 µM, first compound 3.16 µM
# [12] = second compound 0.316 µM, first compound 10 µM
# [13] = second compound 1 µM, first compound 0.0316 µM
# [14] = second compound 1 µM, first compound 0.1 µM
# [15] = second compound 1 µM, first compound 0.316 µM
# [16] = second compound 1 µM, first compound 1 µM
# [17] = second compound 1 µM, first compound 3.16 µM
# [18] = second compound 1 µM, first compound 10 µM
# [19] = second compound 3.16 µM, first compound 0.0316 µM
# [20] = second compound 3.16 µM, first compound 0.1 µM
# [21] = second compound 3.16 µM, first compound 0.316 µM
# [22] = second compound 3.16 µM, first compound 1 µM
# [23] = second compound 3.16 µM, first compound 3.16 µM
# [24] = second compound 3.16 µM, first compound 10 µM
# [25] = second compound 10 µM, first compound 0.0316 µM
# [26] = second compound 10 µM, first compound 0.1 µM
# [27] = second compound 10 µM, first compound 0.316 µM
# [28] = second compound 10 µM, first compound 1 µM
# [29] = second compound 10 µM, first compound 3.16 µM
# [30] = second compound 10 µM, first compound 10 µM
Compound,IC50 (second compound 0.1 µM) [µM],IC50 (second compound 0.316 µM) [µM],IC50 (second compound 1 µM) [µM],IC50 (second compound 3.16 µM) [µM],IC50 (second compound 10 µM) [µM],"viability, T/C [1] [%]","viability, T/C [2] [%]","viability, T/C [3] [%]","viability, T/C [4] [%]","viability, T/C [5] [%]","viability, T/C [6] [%]","viability, T/C [7] [%]","viability, T/C [8] [%]","viability, T/C [9] [%]","viability, T/C [10] [%]","viability, T/C [11] [%]","viability, T/C [12] [%]","viability, T/C [13] [%]","viability, T/C [14] [%]","viability, T/C [15] [%]",other results
C=C(F)C(=O)N1CCN(c2nc(OCC3CCCN3C)nc3c2CCN(c2cccc4cccc(Cl)c24)C3)CC1CC#N (stereo not given) + Cc1c(S(C)(=O)=O)c(-c2cc(F)cc(N3CCN(c4ccc(NS(=O)(=O)c5ccc(NC(CCN6CCC(C(=O)OCCCP(=O)(O)O)CC6)CSc6ccccc6)c(S(=O)(=O)C(F)(F)F)c5)cc4)CC3)c2)c(-c2ccc(Cl)cc2)n1C(C)C,> 10,> 10,5.96,5.08,4.48,95.8,94.5,92,99.9,107,74.8,87.6,95,99.3,86.4,87.4,83.5,96.6,81.3,93.5,"viability, T/C [16]: 74.9%; viability, T/C [17]: 82%; viability, T/C [18]: 25.5%; viability, T/C [19]: 82.7%; viability, T/C [20]: 80.6%; viability, T/C [21]: 78.5%; viability, T/C [22]: 83.7%; viability, T/C [23]: 85.5%; viability, T/C [24]: 4.09%; viability, T/C [25]: 75.5%; viability, T/C [26]: 70.1%; viability, T/C [27]: 70.4%; viability, T/C [28]: 67.1%; viability, T/C [29]: 68.5%; viability, T/C [30]: 8.1%"
O=C(c1cc(Cc2n[nH]c(=O)c3ccccc23)ccc1F)N1CCN(C(=O)C2CC2)CC1 + Cc1c(S(C)(=O)=O)c(-c2cc(F)cc(N3CCN(c4ccc(NS(=O)(=O)c5ccc(NC(CCN6CCC(C(=O)OCCCP(=O)(O)O)CC6)CSc6ccccc6)c(S(=O)(=O)C(F)(F)F)c5)cc4)CC3)c2)c(-c2ccc(Cl)cc2)n1C(C)C,> 10,> 10,> 10,> 10,> 10,98,93.4,85.8,95.6,99.8,89.5,88.8,102,103,88.3,94.3,87.1,91.4,96.9,88.2,"viability, T/C [16]: 89%; viability, T/C [17]: 83.5%; viability, T/C [18]: 81.2%; viability, T/C [19]: 89.9%; viability, T/C [20]: 83.6%; viability, T/C [21]: 84.5%; viability, T/C [22]: 86%; viability, T/C [23]: 78.3%; viability, T/C [24]: 66.3%; viability, T/C [25]: 73.2%; viability, T/C [26]: 74.9%; viability, T/C [27]: 71.6%; viability, T/C [28]: 71.8%; viability, T/C [29]: 74%; viability, T/C [30]: 57.9%"
